Legend:
[1] = tested on: high-CBD hemp variety Cherry; experiment: Low-volume drone foliar applications of MeJA or MDJ on field grown high-CBD hemp, cannabinoid and terpene analysis; type: in vivo, Cannabis spp.; conditions: about 2 gallons per acre, at harvest; for increase in the ratio of CBD:THC compared to the Control group / alpha bisabolol change compared to the Control group: 7.5 mM; for increase in the ratio of CBD:THC compared to the Control group: morning applications about every 14 days
From the text: In previous foliar application experiments, plants were sprayed until the leaves were dripping. In order to assess the plant physiological response to low-volume foliar applications of two jasmonate elicitors, methyl jasmonate (MeJA) and methyl dihydro-jasmonate (MDJ), an outdoor experiment on field grown, high-CBD hemp was designed and performed during the summer of 2019 using an unmanned aerial drone as the application device. A single high-CBD hemp variety, “Cherry” (CBDRx, Longmont, Colo.) was used in an organic field plot in Pueblo, Colo., which was subdivided into four spatially separated quadrants of approximately 0.5 acres each as determined by drone and GPS mapping. Each 0.5-acre quadrant was assigned a treatment group, and the middle area of the entire plot, approximately 1 acre in area, was used as a “control” section of the field. Plants in the Control group received sprays of water and TWEEN®-20 only, identical to the treatment groups except for the exclusion of any jasmonate (i.e., [0 mM] MeJA and MDJ) active ingredients. MeJA and MDJ were applied at approximately 2 gallons per acre. In comparison, previous foliar applications wherein the plant was sprayed until the leaves dripped would equate to between 50-100 gallons per acre.
Treatments were separated into such “morning” and “evening” applications in an attempt to determine if the time of day influenced the plant response to the treatments. The four treatment groups were as follows: TIM=[7.5 mM] MDJ foliar applications in the morning; TIE=[7.5 mM] MDJ foliar applications in the evening; T2M=[7.5 mM] MeJA foliar applications in the morning; T2E [7.5 mM] MeJA foliar applications in the evening. All treatment groups were prepared the day of the application, and all applications were made successively with the same drone device. To reduce potential cross-contamination of the drone sprayer equipment, an acetic acid solution (5%) was run through the applicator equipment between each treatment application and control spray application, followed by plain water as a final rinse.
Plants were planted and allowed to grow in the normal fashion until the onset of flowering, which occurred around Jul. 25, 2019. At that point, foliar applications of the treatment were made approximately every 14 days with adjustments to the schedule as needed to avoid applying treatments on days with high winds, rain, or other suboptimal conditions for drone flight or treatment applications. Approximately every 14 days during the flowering cycle, flower samples from three randomly selected plants in each experimental group were taken, dried, and stored for analytical testing; however, the focus of this study was to determine the effect of the treatment groups versus the control group at harvest. Final flower samples were taken from 10 randomly selected plants in each experimental group on Sep. 12, 2019, labelled accordingly, dried, and sent to a third part commercial cannabis testing lab (Pro Verde, Milford, Mass.) for chemical analysis of the cannabinoids and terpene content individually using liquid chromatography (LC) and headspace gas chromatography (HS-GC), respectively. All samples were harvested on the day of a scheduled treatment prior to treatment.
Statistical analysis of the quantitative terpene data from plant samples taken at harvest was performed using R statistical software and corrected post-hoc using Tukey HSD method. For cannabinoid data from the same plant samples, ANOVA analysis was performed in Microsoft Excel with Tukey HSD post-hoc corrections.

[2] = tested on: hemp clones cv. Cherry in the vegetative stage; experiment: Root drench of MeJA or MDJ, phytotoxicity; type: in vivo, Cannabis spp.; conditions: for plants deceased in 72 hours: 250 mL, n=4; for phytotoxicity to plants in the vegetative stage: root drench, concentrations above 10 mM, within 72 hours
Protocol: To investigate if higher concentrations of jasmonate elicitors would be tolerated in cannabis by root drench, four different concentrations, [7.5 mM], [10 mM], [15 mM] and [20 mM] were applied to hemp clones (n=4 per treatment group, cv.: Cherry, CBDRx) in the vegetative stage. Treatment concentrations were prepared from methyl dihydrojasmonate (MDJ, TCI, CAS No.: 24851-98-7) and methyl Jasmonate (MeJA, TCI, CAS No.: […]) with 1% TWEEN®-20 added (VWR, CAS No.: […]).
The roots of each clone in each treatment group were treated with 250 mL of each compound once per week. Plants were grown under a total of 12 Boost (Thrive Agritech, NY) 130-watt LED lights set to 18L: 6D photoperiod during the vegetative phase (2 weeks) or until phytotoxicity observed.

seedling mold = experiment: Fungal plug growth on jasmonate-infused PDA plates; type: cell-based, Trichoderma ghanense; conditions: for seedling mold growth: 1 mM, 4.25 mM, 10 mM in PDA, 72 hours post inoculation
Protocol: (§1) MDJ (TCI, CAS No.: 24851-98-7) and CJ were infused into potato dextrose agar (PDA, VWR Cat No.: 90003-494) petri dishes (100×15 mm VWR, Cat No: 25384-094) at concentrations ranging from 1 mM, 4.25 mM, and 10 mM. Each treatment was prepared using a technical grade stock solution of pure chemical (CJ or MDJ) diluted with TWEEN®-20 (VWR, CAS No.: […]). Culturable oyster mushroom and seedling mold served to create fungal mycelial plugs using a sterile 1 mL pipette tip (Eppendorf, Cat No.: 022491458) held upside down. The tips were used to make circle excisions (i.e., fungal plugs) from a mycelial mat grown on PDA with no biochemical infusions. Fungal pugs were then transferred to PDA infused with varying concentrations of CJ or MDJ, and control plates (no CJ or MDJ infusion) to monitor fungal growth at room temperature over time.
To compare the efficacy of MDJ and MeJA at inhibiting the same seedling mold as used in the experiment above, a second experiment was conducted using PDA plates infused with either MDJ or MeJA at different concentrations. All plates were generated and inoculated as described above and incubated at room temperature under identical conditions. Shown in FIGS. 9A-9C are plates of seedling mold 72 hours post fungal inoculation. Control plates are shown on the top row, followed by concentrations of MeJA (left) and MDJ (right) in duplicate at 1 mM (FIG. 9A), 4.25 mM (FIG. 9B), and 10 mM (FIG. 9C). […] Subsequent sequence analysis identified the “seedling mold” as Trichoderma ghanense.

Penicillium spp. = experiment: Mold growth on jasmonate-infused plates, mold isolated from orange; type: cell-based; conditions: various concentrations in plates
Protocol: as §1
(§2) Based on the above results in Cannabis spp., additional fungi from various crops was sampled and tested. Plates comprising various concentrations of MDJ or MJ were prepared as described above.

[3] = tested on: Cladosporium cladosporioides; experiment: Mold growth on jasmonate-infused plates, mold isolated from tomato; type: cell-based; conditions: various concentrations in plates
Protocol: as §1, §2

SMILES | increase in the ratio of CBD:THC compared to the Control group [1] | alpha bisabolol change compared to the Control group [1] | alpha-humulene increase compared to the Control group ([1]; Treatment 1, 7.5 mM) | beta-caryophyllene increase compared to the Control group ([1]; Treatment 1, 7.5 mM) | guaiol increase compared to the Control group ([1]; Treatment 1, 7.5 mM) | trans-nerolidol increase compared to the Control group ([1]; Treatment 1, 7.5 mM) | plants deceased in 72 hours ([2]; root drench 10 mM) | plants deceased in 72 hours ([2]; root drench 15 mM) | plants deceased in 72 hours ([2]; root drench 20 mM) | phytotoxicity to plants in the vegetative stage [2] | seedling mold growth (seedling mold) | seedling mold growth compared to control (seedling mold; all concentrations (1 mM, 4.25 mM, 10 mM) in PDA, 72 hours and 10 days) | efficacy at inhibiting seedling mold, MDJ compared with MeJA (seedling mold; at the 1 mM concentration, 72 hours) | growth of mold isolated from orange (Penicillium spp.) | growth of mold isolated from tomato [3]
CCCCCC1C(=O)CCC1CC(=O)OC (centres unmarked) [MDJ, methyl dihydrojasmonate] | 2.53% | 17.2% | 3.15% | 3.3% | 5.66% | 66.66% | three out of four | all four | all four | phytotoxic | inhibited | showed inhibition | more effective | effective at preventing the growth | effective at preventing the growth
CC/C=C\C[C@H]1C(=O)CC[C@@H]1CC(=O)OC [MeJA, Methyl Jasmonate] | 1.76% | decreased |  |  |  |  |  | three out of four | three out of four | phytotoxic | inhibited |  |  | effective at preventing the growth | effective at preventing the growth
